According to patent US20240254175A1, “NOVEL SELECTIVE ANT[…] PEPTIDES” (BOMBI BIOMICS BV, priority 2021, published 2024):
Non-standard residues stand in square brackets, D forms with d. Residues, ends and D or L forms follow the SMILES beside them. No end group written: not given here. *: point of attachment. Palmitoyl = CCCCCCCCCCCCCCCC(=O)*

Key:
C. acnes biofilm = details: strains with the strongest C. acnes biofilm formation ability
Protocol: Briefly, 250 μl of bacterial cells (1×10^6 CFU/ml) of 10 strains (C. acnes 3, 4, 23, 25, 55, 61, 62, 63, 68, 78) (FIG. 9) with the strongest biofilm formation ability were inoculated in a Greiner polyethylene 96well plate (Sigma Aldrich); TSB culture medium containing no bacteria was used as the blank control, and the plate was incubated at 37° C. for 24 hours. The culture medium was subsequently removed, and wells were carefully washed with PBS three times to remove C. acnes bacteria.
Subsequently, 250 μl of TSB culture medium containing the aforementioned polypeptides in serial doubling dilutions was added to each well. TSB medium without any of the polypeptides was used as a negative control, and plates were incubated at 37° C. for 24 hours. If OD600<0.1, there was no bacterial growth, and the lowest concentration without bacterial growth at this time point was recorded; this is the Minimum Biofilm Inhibitory Concentration (MBIC). Then, the cells and polypeptides in the 96-well cell culture plate were washed with PBS, and 250 μl of TSB culture medium was added to each well.
The plates were incubated at 37° C. for 24 hours to re-grow the surviving biofilm bacteria. […] The lowest concentration at which no bacterial growth was recorded is the minimal biofilm eradication concentration (MBEC).

[1] = test system: other bacteria tested (C. granulosum, C. avidum, S. aureus, S. epidermis, C. striatum); assay: In vitro killing assay on the other (non C. acnes) bacteria; assay type: cell-based
Protocol: Inoculi of mid-log phase bacteria were prepared by incubating the above isolated colonies from blood agar plates in Tryptic Soy Broth (TSB) medium (Becton Dickinson, Le Pont de Clax, France) for 2.5 hours and then diluted to the concentration needed.
For the in vitro killing assay on mid-log phase bacteria, each of the above strains were resuspended to a concentration of 1×10^6 bacteria/ml in phosphate buffered saline (PBS). Subsequently, 200 μl was added to a concentration range of peptides Wildtype BLP-7, BMBN-1, BMBN-2, BMBN-3, BMBN-4, BMBN-5, BMBN-6, and BMBN-7 that were lyophilized in advance. Subsequently, the bacteria-peptide mixtures were incubated for 1 hour at 37° C. To establish the killing capacity and specificity of these peptides, the suspensions were serially diluted and plated onto DST agar plates to measure viable CFU counts. IC90, IC99 and IC99.9 values were calculated by linear regression analysis. […] Results were pooled from 4 independent experiments concerning the above C. acnes strains (FIG. 2B) and 5 independent experiments concerning the other non C. acnes related strains (FIG. 2B continued). The results are expressed as mean±standard deviation (SD).

human erythrocytes = test system: human erythrocytes
Protocol: A hemolytic assay was performed as previously described by Zelezetsky et al.. Freshly drawn human erythrocytes were rinsed three times with phosphate buffered saline (PBS) and resuspended in PBS to 4% (v/v). […] PBS and 0.1% (v/v) Triton-X 100 were used as 0% and 100% hemolytic control respectively. Plates were incubated at 37° C. for 1 hour.
Subsequently, the plate was centrifuged and the supernatant was transferred to a new plate. The release of hemoglobin in the supernatant was monitored at absorbance of 450 nm using an Infinite M1000 Microplate reader (Tecan). Results were pooled from three independent experiments and expressed as mean±SD. HC10 and HC50 were defined as the peptide concentrations causing 10% and 50% hemolysis on human erythrocytes, respectively.

Compound: CCCCCCCCCCCCCCCC(=O)NCC(=O)N[C@H](C(=O)NCC(=O)NCC(=O)N[C@@H](C)C(=O)N[C@@H](CC(C)C)C(=O)N[C@@H](CC(C)C)C(=O)N[C@@H](CO)C(=O)N[C@@H](C)C(=O)NCC(=O)N[C@@H](CCCCN)C(=O)N[C@@H](CO)C(=O)N[C@@H](C)C(=O)N[C@@H](CC(C)C)C(=O)N[C@@H](CCCCN)C(=O)NCC(=O)N[C@@H](CC(C)C)C(=O)N[C@@H](C)C(=O)N[C@@H](CCCCN)C(=O)NCC(=O)N[C@@H](CC(C)C)C(=O)N[C@@H](C)C(=O)N[C@@H](CCC(=O)O)C(=O)N[C@@H](Cc1c[nH]cn1)C(=O)N[C@@H](Cc1ccccc1)C(=O)N[C@@H](C)C(=O)N[C@@H](CC(N)=O)C(N)=O)[C@@H](C)CC [BMBN-1] (Palmitoyl-GIGGALLSAGKSALKGLAKGLAEHFAN-NH2)
- MBEC (concentration that eradicates the biofilm) (C. acnes biofilm): 235 to 496 µg/mL

Compound: CCCCCCCCCCCCCCCC(=O)N[C@@H](CCC(=O)O)C(=O)N[C@@H](CCCNC(=N)N)C(=O)N[C@@H](CC(N)=O)C(=O)N[C@@H](CC(N)=O)C(=O)N[C@@H](Cc1ccccc1)C(=O)NCC(=O)NCC(=O)NCC(=O)N[C@H](CC(N)=O)C(=O)N[C@H](C)C(=O)N[C@H](Cc1ccccc1)C(=O)N[C@H](Cc1c[nH]cn1)C(=O)N[C@H](CCC(=O)O)C(=O)N[C@H](C)C(=O)N[C@H](CC(C)C)C(=O)NCC(=O)N[C@H](CCCCN)C(=O)N[C@H](C)C(=O)N[C@H](CC(C)C)C(=O)NCC(=O)N[C@H](CCCCN)C(=O)N[C@H](CC(C)C)C(=O)N[C@H](C)C(=O)N[C@H](CO)C(=O)N[C@H](CCC(=O)O)C(=O)NCC(=O)N[C@H](C)C(=O)N[C@H](CO)C(=O)N[C@H](CC(C)C)C(=O)N[C@H](CC(C)C)C(=O)N[C@H](C)C(=O)NCC(=O)NCC(=O)N[C@@H](C(=O)NCC(N)=O)[C@H](C)CC [BMBN-6] (Palmitoyl-ERNNFGGG[dN][dA][dF][dH][dE][dA][dL]G[dK][dA][dL]G[dK][dL][dA][dS][dE]G[dA][dS][dL][dL][dA]GG[dI]G-NH2)
- effect on other, untargeted bacteria / specificity towards C. acnes (in words) [1]: specificity towards C. acnes only negligibly decreased

Compound: CCCCCCCCCCCCCCCC(=O)N[C@H](CCC(=O)O)C(=O)N[C@H](CCCNC(=N)N)C(=O)N[C@H](CC(N)=O)C(=O)N[C@H](CC(N)=O)C(=O)N[C@H](Cc1ccccc1)C(=O)NCC(=O)NCC(=O)NCC(=O)NCC(=O)N[C@@H](C(=O)NCC(=O)NCC(=O)N[C@H](C)C(=O)N[C@H](CC(C)C)C(=O)N[C@H](CC(C)C)C(=O)N[C@H](CO)C(=O)N[C@H](C)C(=O)NCC(=O)N[C@H](CCC(=O)O)C(=O)N[C@H](CO)C(=O)N[C@H](C)C(=O)N[C@H](CC(C)C)C(=O)N[C@H](CCCCN)C(=O)NCC(=O)N[C@H](CC(C)C)C(=O)N[C@H](C)C(=O)N[C@H](CCCCN)C(=O)NCC(=O)N[C@H](CC(C)C)C(=O)N[C@H](C)C(=O)N[C@H](CCC(=O)O)C(=O)N[C@H](Cc1c[nH]cn1)C(=O)N[C@H](Cc1ccccc1)C(=O)N[C@H](C)C(=O)N[C@H](CC(N)=O)C(N)=O)[C@H](C)CC [BMBN-7] (Palmitoyl-[dE][dR][dN][dN][dF]GGGG[dI]GG[dA][dL][dL][dS][dA]G[dE][dS][dA][dL][dK]G[dL][dA][dK]G[dL][dA][dE][dH][dF][dA][dN]-NH2)
- hemolytic activity (in words) (human erythrocytes): negligible hemolytic activity
- MBIC (concentration that inhibits the biofilm) (C. acnes biofilm): 56 to 117 µg/mL

Compound: GIGGALLSAGKSALKGLAKGLAEHFAN-NH2 [Wildtype BLP-7, reference compound]
- hemolytic activity (in words) (human erythrocytes): within the range of negligible hemolytic activity
